Like-named read-outs stand apart in the source and are kept apart here.
Columns and labels:
[1] = Refractive index of microemulsions; format: physicochemical; settings: aqueous phase = water; oil plus low HLB surfactant (3:1, 87%), high HLB surfactant (10%), aqueous (3%)
Text: (§1) All the microemulsions had oil plus low HLB surfactant (3:1, 87%), high HLB surfactant (10%) and aqueous (3%).

[2] = Viscosity of microemulsions; format: physicochemical; settings: aqueous phase = water; oil plus low HLB surfactant (3:1, 87%), high HLB surfactant (10%), aqueous (3%)
Text: as §1

[3] = value in parentheses, from the CRC Handbook of Chemistry and Physics, 60th Edition; cited from earlier work
[4] = value in parentheses, from the CRC Handbook of Chemistry and Physics, 60th Edition; cited from earlier work; remark: listed apart in the source

CCCCCCCC/C=C\CCCCCCCC(=O)O [Oleic Acid]
Refractive index [1]: 1.4582 | Viscosity [2]: 23.4 centiPoise | Viscosity [3]: 25.6 centiPoise | Refractive index [4]: 1.4583

Source: patent EP0597029B1, “W/O MICROEMULSIONS” (SMITHKLINE BEECHAM CORPORATION, priority 1991, dated 1993)
